Laboratory results published in paper PMC5083757, “Effect of veliparib (ABT-888) on cardiac repolarization in patients with advanced solid tumors: a randomized, placebo-controlled crossover study” (Cancer Chemotherapy and Pharmacology, 2016).
Read-outs that look alike come from different tables or passages of the source. Marks after values point to notes of the source that are not given here.

Legend:
[1] = tested on: patients with BRCA1/2-mutated or wild-type tumors; set-up: method as in earlier work; conditions: cited from earlier work
[2] = Pharmacokinetic assessment of veliparib plasma concentrations after a single oral dose; format: in vivo, human; conditions: for half-life / AUC(0-inf) / Vd/F / AUC(0-t) / Cmax / Tmax: human, plasma; for Vd/F: read-out: VZ/F
Procedure: (§1) Following screening, on the morning of day 1 of each period, eligible patients received a single dose of veliparib 200 mg, veliparib 400 mg, or placebo according to the treatment sequence assigned at randomization, administered orally between 8.00 and 10.00 AM, and approximately 30 min after the start of a low-fat breakfast. Each treatment period lasted 3–7 days, allowing for ≥3 days of drug washout between periods. After study completion, patients were permitted to enter an extension study (NCT02033551) to assess the safety of veliparib as monotherapy or in combination with chemotherapy.
In each period, blood samples were collected for pharmacokinetic analysis at 0 h (pre-dose), and at 0.5, 1, 2, 3, 10, and 24 h post-dose. Plasma concentrations of veliparib were determined using a validated online solid-phase extraction followed by liquid chromatography with tandem mass spectrometric detection with a lower limit of quantitation for veliparib of 1.05 ng/mL. Veliparib pharmacokinetic parameters were estimated using non-compartmental methods.

dogs = conditions: preclinical studies in dogs; cited from earlier work
[3] = tested on: patients with advanced solid tumors; experiment: ECG assessment of QTcF interval, single-dose placebo-controlled crossover study; format: in vivo, human
Excerpt: This was a multicenter phase 1, single-dose, double-blind, placebo-controlled, randomized, 3-period, 6-sequence crossover study (NCT02009631). The primary objective was to evaluate the effect of veliparib on corrected QT interval using Fridericia’s formula (QTcF) in patients with solid tumors. Secondary objectives were to assess the pharmacokinetics, safety, and tolerability of single-dose veliparib.
as §1
Serial, resting 12-lead ECG measurements were performed at screening, on day 1 of each period at 0 h (pre-dose), and at 0.5, 1, 2, 3, 10, and 24 h post-dose, and at the final study visit on day 3 of period 3. ECGs were performed in triplicate except for a single ECG at screening. All ECG tracings were evaluated using the automated signal analysis algorithm of eECG/ABBIOS to measure predefined ECG intervals (RR, PR, QT, and QRS duration). All ECGs were manually verified and adjudicated by an expert over-reader who was blinded to treatment, time, and patient identification. T- and U-wave morphologies were independently reviewed by a qualified cardiologist who was similarly blinded to treatment, time, and patient identification. QTcF was determined as follows: QTCF=QT/RR3
A linear mixed effects model was used for the analysis of baseline-adjusted QTcF intervals (∆QTcF) for the first 24 h after dosing with either placebo, veliparib 200 mg, or veliparib 400 mg. The primary endpoint was the baseline-adjusted difference in mean QTcF between the veliparib 400 mg dose and placebo (∆∆QTcF) at six post-dose time points. Absence of QTcF effect was established if the 95 % upper confidence bound for the mean ∆∆QTcF between veliparib 400 mg and placebo was below the 10 ms threshold of clinical significance for all post-dose time points, in accordance with ICH E14 guidelines. For the QT/QTc, PR, and QRS interval variables, appropriate cutoff points defining the categories of the largest change from baseline were determined. For QTc, the cutoff points for these categories were as specified in the ICH E14 guidelines. The dataset for ECG evaluations included all available patients’ data.

[4] = tested on: patients with advanced solid tumors; experiment: Safety: treatment-emergent adverse events; format: in vivo, human; conditions: for TEAE: AE leading to discontinuation / TEAE: Abdominal pain / TEAE: Any AE / TEAE: Any fatal AE / TEAE: Any serious AE / TEAE: Back pain / TEAE: Constipation / TEAE: Decreased appetite / TEAE: Dehydration / TEAE: Diarrhea / TEAE: Dizziness / TEAE: Dysgeusia / TEAE: Fatigue / TEAE: Hypomagnesemia / TEAE: Myalgia / TEAE: NCI CTCAE grade 3 or 4 / TEAE: Nausea / TEAE: Neck pain / TEAE: Vomiting: N = 47; for TEAE: At least possibly related to study drug: N = 47, as assessed by investigator; for Deaths: N = 47, includes non-treatment-emergent deaths
Procedure: Safety was evaluated by AE monitoring, vital signs, physical examination, and laboratory testing throughout the study. Treatment-emergent AEs (TEAEs) were recorded from the time of first dose of study drug until 30 days from the last day of dosing or discontinuation, or until the first dose of study drug for patients enrolling in the NCT02033551 extension study. TEAEs were classified by Medical Dictionary for Regulatory Activities version 17.0 system organ class and preferred term. The severity of AEs was rated according to the National Cancer Institute Common Terminology Criteria for Adverse Events version 4.0. The safety population consisted of all patients’ data.

[5] = tested on: patients with advanced solid tumors; experiment: Exposure-response model (veliparib plasma concentration vs ∆∆QTcF); format: in vivo, human; conditions: linear mixed effects model
Procedure: To establish the nonsignificance of a hysteresis effect, the criteria discussed in Darpo et al. were applied. Subsequently, linear mixed effects models were tested, with or without an additional lagged effect compartment, depending on the outcome of the test for hysteresis. A final model was chosen based on goodness of fit, plausibility of the parameters, and Bayesian information criterion (BIC). The relationship between ∆∆QTcF and veliparib concentration was modeled using the following equation: ΔΔQTcFi,j=ηi(2)+(Slope0+ηi(1))×Concentrationi,j+εi,j for subject i and time point j. η ^(2) represents the inter-subject variability on intercept (fixed effect on intercept is set to zero). Slope0 represents fixed effect on slope. η ^(1) represents the inter-subject variability of the Slope. ε i,j is the residual variability in subject i at time j.

[6] = 200 mg single oral dose, N = 46, mean ± SD
[7] = 400 mg single oral dose, N = 46, mean ± SD
[8] = 200 mg single oral dose, N = 47, mean ± SD
[9] = any of the three regimens (200 mg, 400 mg, placebo)
[10] = veliparib 200 mg single oral dose vs placebo
[11] = veliparib 400 mg single oral dose vs placebo

C[C@]1(c2nc3c(C(N)=O)cccc3[nH]2)CCCN1 [Veliparib]
dose-limiting toxicities ([1]; at 400 mg twice daily, in patients with BRCA1/2-mutated and wild-type tumors, respectively): grade 3 nausea/vomiting and grade 2 seizure | maximum tolerated dose of single-agent veliparib ([1]; phase 1 study, patients with BRCA1/2-mutated or wild-type tumors): 400 mg twice daily | AUC∞/dose [2, 6]: 59.9 ± 19.9^b (ng h/mL)/mg | CL/F [2, 6]: 18.2 ± 5.09^b L/h | Cmax/dose [2, 6]: 6.62 ± 1.89^b (ng/mL)/mg | AUC∞/dose [2, 7]: 63.8 ± 20.9 (ng h/mL)/mg | CL/F [2, 7]: 17.3 ± 5.27 L/h | Cmax/dose [2, 7]: 6.51 ± 2.12 (ng/mL)/mg | half-life ([2]; oral, similar for the 200 mg and 400 mg dose groups, read-out: terminal phase elimination half-life (t1/2) (converted)): ~5.5 h | half-life ([2]; 200 mg single oral dose, N = 46, harmonic mean ± pseudo SD, read-out: t1/2 (converted)): 5.3 ± 1.1 h | AUC(0-inf) [2, 6]: 12000 ± 3980 ng·h/mL | Vd/F [2, 6]: 141 ± 42.8 L | AUC(0-t) [2, 8]: 11100 ± 3120 ng·h/mL | Cmax [2, 8]: 1320 ± 378 ng/mL | Tmax [2, 8]: 2.4 ± 0.7 h | half-life ([2]; 400 mg single oral dose, N = 46, harmonic mean ± pseudo SD, read-out: t1/2 (converted)): 5.4 ± 1.3 h | AUC(0-inf) [2, 7]: 25500 ± 8370 ng·h/mL | AUC(0-t) [2, 7]: 23800 ± 7100 ng·h/mL | Cmax [2, 7]: 2610 ± 847 ng/mL | Tmax [2, 7]: 2.5 ± 0.6 h | Vd/F [2, 7]: 138 ± 48.4 L | mean time to Cmax (Tmax) ([2]; similar for the 200 mg and 400 mg dose groups): approximately 2.5 h | systemic exposure vs dose ([2]; single oral doses 200 mg and 400 mg): increased in a dose-proportional manner | effect on corrected QT (QTc) interval (dogs): mild but concentration-dependent increase | patients with QTcF value greater than 480 ms [3, 9]: No patient | patients with change from baseline in QTcF interval greater than 30 ms [3, 9]: No patient | maximum 95 % upper confidence bound for mean ∆∆QTcF [3, 10]: 6.1 ms | maximum mean ∆∆QTcF [3, 10]: 3.6 ms | maximum 95 % upper confidence bound for mean ∆∆QTcF [3, 11]: 8.9 ms | maximum mean ∆∆QTcF [3, 11]: 6.4 ms | TEAE: AE leading to discontinuation ([4]; 200 mg): 0 n (%) | TEAE: Abdominal pain ([4]; 200 mg): 2 (4.3) n (%) | TEAE: Any AE ([4]; 200 mg): 17 (36.2) n (%) | TEAE: Any fatal AE ([4]; 200 mg): 0 n (%) | TEAE: Any serious AE ([4]; 200 mg): 0 n (%) | TEAE: Back pain ([4]; 200 mg): 0 n (%) | TEAE: Constipation ([4]; 200 mg): 0 n (%) | TEAE: Decreased appetite ([4]; 200 mg): 0 n (%) | TEAE: Dehydration ([4]; 200 mg): 2 (4.3) n (%) | TEAE: Diarrhea ([4]; 200 mg): 1 (2.1) n (%) | TEAE: Dizziness ([4]; 200 mg): 0 n (%) | TEAE: Dysgeusia ([4]; 200 mg): 0 n (%) | TEAE: Fatigue ([4]; 200 mg): 2 (4.3) n (%) | TEAE: Hypomagnesemia ([4]; 200 mg): 0 n (%) | TEAE: Myalgia ([4]; 200 mg): 4 (8.5) n (%) | TEAE: NCI CTCAE grade 3 or 4 ([4]; 200 mg): 1 (2.1) n (%) | TEAE: Nausea ([4]; 200 mg): 6 (12.8) n (%) | TEAE: Neck pain ([4]; 200 mg): 0 n (%) | TEAE: Vomiting ([4]; 200 mg): 2 (4.3) n (%) | TEAE: At least possibly related to study drug ([4]; 200 mg): 7 (14.9) n (%) | Deaths ([4]; 200 mg): 0 n (%) | TEAE: AE leading to discontinuation ([4]; 400 mg): 1 (2.1) n (%) | TEAE: Abdominal pain ([4]; 400 mg): 2 (4.3) n (%) | TEAE: Any AE ([4]; 400 mg): 23 (48.9) n (%) | TEAE: Any fatal AE ([4]; 400 mg): 0 n (%) | TEAE: Any serious AE ([4]; 400 mg): 0 n (%) | TEAE: Back pain ([4]; 400 mg): 2 (4.3) n (%) | TEAE: Constipation ([4]; 400 mg): 1 (2.1) n (%) | TEAE: Decreased appetite ([4]; 400 mg): 1 (2.1) n (%) | TEAE: Dehydration ([4]; 400 mg): 0 n (%) | TEAE: Diarrhea ([4]; 400 mg): 3 (6.4) n (%) | TEAE: Dizziness ([4]; 400 mg): 3 (6.4) n (%) | TEAE: Dysgeusia ([4]; 400 mg): 2 (4.3) n (%) | TEAE: Fatigue ([4]; 400 mg): 3 (6.4) n (%) | TEAE: Hypomagnesemia ([4]; 400 mg): 0 n (%) | TEAE: Myalgia ([4]; 400 mg): 1 (2.1) n (%) | TEAE: NCI CTCAE grade 3 or 4 ([4]; 400 mg): 1 (2.1) n (%) | TEAE: Nausea ([4]; 400 mg): 4 (8.5) n (%) | TEAE: Neck pain ([4]; 400 mg): 2 (4.3) n (%) | TEAE: Vomiting ([4]; 400 mg): 4 (8.5) n (%) | TEAE: At least possibly related to study drug ([4]; 400 mg): 11 (23.4) n (%) | Deaths ([4]; 400 mg): 0 n (%) | TEAE myalgia ([4]; veliparib 200 mg): 8.5% | TEAE nausea ([4]; veliparib 200 mg): 12.8% | patients experiencing treatment-emergent adverse events ([4]; veliparib 200 mg): 36.2% | TEAE diarrhea ([4]; veliparib 400 mg): 6.4% | TEAE dizziness ([4]; veliparib 400 mg): 6.4% | TEAE fatigue ([4]; veliparib 400 mg): 6.4% | TEAE nausea ([4]; veliparib 400 mg): 8.5% | TEAE vomiting ([4]; veliparib 400 mg): 8.5% | patients experiencing treatment-emergent adverse events ([4]; veliparib 400 mg): 48.9% | predicted mean ∆∆QTcF at geometric mean of Cmax ([5]; 200 mg dosing): 2.45 ms | predicted upper 95th percentile ∆∆QTcF at geometric mean of Cmax ([5]; 200 mg dosing): 3.28 ms | predicted mean ∆∆QTcF at geometric mean of Cmax ([5]; 400 mg dosing): 4.62 ms | predicted upper 95th percentile ∆∆QTcF at geometric mean of Cmax ([5]; 400 mg dosing): 6.19 ms
